Data on two compounds can be found in patent US11166920B2, “Microfluidics device for fabrication of large, uniform, injectable hydrogel microparticles for cell encapsulation” (Auburn University, priority 2017, dated 2021).

The test system of this assay is microsphere CMs. Description: Multielectrode array: drug response and exogenous pacing. It counts as cell-based, human. As to conditions: day 20 microsphere CMs; isoproterenol 1 μM, then propranolol 1 μM. The protocol:
Day 20 and 50 dissociated microsphere CMs were seeded onto a fibronectin coated S2 type MEA200/30-Ti-gr (Multichannel Systems) and cultured for at least 24 h. Adhering microsphere CMs were perfused with Tyrode's solution, composed of 1.8 mM CaCl2), 5 mM glucose, 5 mM HEPES, 1 mM MgCl2, 5.4 mM KCl, 135 mM NaCl, and 0.33 mM NaH2PO4 at pH 7.4 and 37° C. Once stabilized, field potentials of spontaneous contractions were recorded at a sampling frequency of 10 kHz. Drug response of day 20 microsphere CMs was tested by adding the β-adrenergic agonist isoproterenol (1 μM) and antagonist propranolol (1 μM). Day 50 microsphere CMs were exogenously paced from 0.5-6.0 Hz.

Entries after “also recorded” stand apart in the source; their conditions may differ.

Consider `CC(C)NCC(O)c1ccc(O)c(O)c1` (centres unmarked) [isoproterenol], for which the “Effect on contraction rate” value is “increases the frequency of contraction; also recorded: increasing the contraction rate”.
As to `CC(C)NCC(O)COc1cccc2ccccc12` (centres unmarked) [propranolol], the “Effect on contraction rate” value is recorded as “slowed down the rate of contraction; also recorded: reversed the initial increase in contraction rate”.
